{
  "source": "patent US20170119742A1",
  "about": "“MEDICAMENT FOR PREVENTING AND/OR TREATING STRESS DISEASES” (ONO PHARMACEUTICAL CO., LTD., priority 2014, published 2017)",
  "key": {"[1]": {"tested_on": "female diarrhea-type IBS patients", "experiment": "HAM-A (Hamilton Anxiety Scale) in the clinical trial of Biological example 10", "type": "in vivo, human", "conditions": "60 mg treatment", "experimental": "(§1) In the clinical trial of Biological example 10, the therapeutic effect of the compound of the present invention 60 mg treatment on depression and anxiety-related diseases were evaluated using PSS (Perceived Stress Scale) (refer to Journal of Health and Social Behavior, 24, 386-396, 1983), HAM-A (Hamilton Anxiety Scale) (refer to The British journal of medical psychology, 32, 50-55, 1959) and HAM-D (Hamilton Depression scale) (refer to Journal of Neurology, Neurosurgery and Psychiatry, 23, 56-62, 1960) as rating scales."}, "[2]": {"tested_on": "female diarrhea-type IBS patients", "experiment": "HAM-D (Hamilton Depression scale) in the clinical trial of Biological example 10", "type": "in vivo, human", "conditions": "60 mg treatment", "experimental": "as §1"}, "brain TSPO [3]": {"molecular_target": "T1, brain TSPO (Rattus norvegicus, UniProt P16257)", "T1 construct": "measured by using brain (cerebral cortex and hippocampus) homogenates of the vehicle treated group and the compound of the present invention treated group; from tissue; host or cells: Wistar rat brain (cerebral cortex, hippocampus) homogenate", "experiment": "Ex vivo brain TSPO occupancy in rats, [3H] PK11195 radiotracer (Biological example 1)", "conditions": "for receptor occupancy at 0.1 mg/kg / receptor occupancy at 0.3 mg/kg / receptor occupancy at 1 mg/kg / receptor occupancy at 3 mg/kg: rat, po, [3H] PK11195; for receptor occupancy at 0.1 mg/kg: 0.1 mg/kg oral; for receptor occupancy at 0.3 mg/kg: 0.3 mg/kg oral; for receptor occupancy at 1 mg/kg: 1 mg/kg oral; for receptor occupancy at 3 mg/kg: 3 mg/kg oral", "experimental": "(§2) Male Sic: Wistar rats (Japan SLC, Inc., at the time of use: 11 weeks old) was exposed to physical and mental stressors (Journal of Pharmacological Science, Vol. 104, p. 263-273, 2007). The vehicle (0.5 w/v % methylcellulose 400 cP solution) or the compound of the present invention (0.1, 0.3, 1 and 3 mg/kg) was orally administered. Two hours after the administration, the stressor load was started by putting the rat in a restraint stress cage (Natsume Seisakusho Co., Ltd.). The antistress effect was evaluated by measuring the stool weight which was excreted during the stressor load of 1 hour (n=12 in each group).\nNext, brain TSPO occupancy of the compound of the present invention was measured by using brain (cerebral cortex and hippocampus) homogenates of the vehicle treated group and the compound of the present invention treated group, using [^3H] PK11195 as a radiotracer. PK11195 was dissolved in dimethyl sulfoxide (DMSO) to prepare a 4 mmol/L solution. After preparing an ethanol solution of 100 nmol/L [^3H] PK11195 (PerkinElmer, Inc.), the solution was diluted 50-fold with 50 mmol/L HEPES buffer (Sigma-Aldrich Co.). In the case of determining the total binding amount of the radiotracer, 50 mmol/L HEPES (99 μL) and DMSO (1 μL) were added to Nunc MiniSorp (trade name, 12×75 mm, Thermo Fisher Scientific Inc.). In the case of determining the nonspecific binding amount of the radiotracer, 4 mmol/L PK11195 (1 μL) was substituted for DMSO (1 μL). The brain homogenate (50 μL) derived from cerebral cortex or the hippocampus was added to the tube. Then [^3H] PK11195 (50 μL) (cerebral cortex: final concentration 0.4532 nmol/L, hippocampus: final concentration 0.4520 nmol/L) was added and stirred, and the mixture was incubated for 90 minutes at 4° C. After completion of the reaction, ice-cold 50 mmol/L HEPES (2 mL) was added to the tube, and then the mixture was suction filtered on a glass fiber filter (GF/B, Brandel Inc.) which pretreated with 0.3 w/v % polyethyleneimine (Sigma-Aldrich Co.), to collect the brain homogenate. After drying the glass fiber filter, the absorbing part of the brain homogenate was transferred to a liquid scintillation vial. ACS-II scintillation cocktail (7 mL) was added to the liquid scintillation vial and stirred, and the radioactivity was measured by liquid scintillation counter (TRI-CARB2900TR, PerkinElmer Life and Analytical Sciences Inc.). Specific binding amount (dpm) of [3H] PK11195 in each brain homogenate was set to a value obtained by subtracting the nonspecific binding amount (dpm) from the total binding amount (dpm). TSPO occupancy (%) in cerebral cortex and hippocampus, of the compound of the present invention treated group, were calculated according to the following equation.\nTSPO Occupancy (%)=(1−X/Y)×100\nX: Specific binding amount (dpm) in each brain homogenate Y: Average value (dpm) of specific binding amount in control group"}, "brain TSPO [4]": {"molecular_target": "T2, brain TSPO (Homo sapiens, UniProt P30536)", "T2 construct": "from tissue; host or cells: living human brain (PET, healthy adults)", "T2 sequence (P30536 whole entry)": "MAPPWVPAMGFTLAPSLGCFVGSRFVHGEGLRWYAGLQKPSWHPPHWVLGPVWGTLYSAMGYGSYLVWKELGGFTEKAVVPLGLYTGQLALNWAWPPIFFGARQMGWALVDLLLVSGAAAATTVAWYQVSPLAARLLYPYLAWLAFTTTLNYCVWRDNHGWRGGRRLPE", "experiment": "Brain occupancy using PET in humans (1), [11C] PBR28, Emax model", "type": "in vivo", "experimental": "Male and female healthy adults were used. The compound of the present invention (6 to 200 mg) was once orally administered. Before and after 24 hours of the administration, a PET measurement using [^11C] PBR28 was performed in the following manner.\nMeasurement equipment: PET; ECAT HR+(Siemens) Measurement methods: 90 minutes blank measurement and 10 to 15 minutes transmission measurement were performed using 68Ge/68Ga calibration source. Next, [^11C] PBR28 was intravenously bolus administrated over a period of about 30 seconds. Emission measurement (total 90 minutes, 26 frames) was started together with the administration while an arterial blood sampling for measuring the plasma concentration.\nBrain occupancy, relative to the binding potential (BP) before the administration, was calculated by calculating the BP of each interest area from the brain radioactivity concentration time change of [^11C] PBR28, nonspecific binding amount and arterial blood plasma radioactivity which was corrected in a non-metabolic rate (n=3 to 4 in each group). Further, the average TSPO occupancy of all interest areas was determined from the Lassen plot that obtained by the horizontal axis of the distribution volume before administration and the vertical axis of the value obtained by subtracting the distribution volume after administration from the distribution volume before the administration for each interest area. […] As parameters in this model, Emax (a maximal effect) and EC50 (ng/mL) (a blood concentration which can be achieved 50% Emax) were used. An analysis software NONMEM7.1.2 (ICON Development Solutions) was used in this analysis. Parameters and formula of Emax model were shown in the following.\nTSPO Occupancy (%)=(θ1×X)/(θ2+X)\nX=Plasma concentration (ng/mL)"}, "[5]": {"tested_on": "Wistar rats exposed to physical and mental stressors", "experiment": "Antistress effect: stool weight excreted during restraint stressor load in rats", "type": "in vivo", "conditions": "rat; for average stool wet weight: 2 h before 1 h restraint stressor, vehicle 1.79 g, normal 0.04 g", "experimental": "as §2"}},
  "data": [
    {"smiles": "COc1cc(Cl)ccc1[C@H]1c2[nH]c3cccc(F)c3c2C2(CC2)CN1C(C)=O", "note": "[the compound of the present invention, (1S)-2-acetyl-1-(4-chloro-2-methoxyphenyl)-5-fluoro-1,2,3,9-tetrahydrospiro[β-carboline-4,1′-cyclopropane]]", "values": [
      {"measurement": "HAM-A score, 4th week", "setting": "[1]; Patient A, baseline 18", "result": 4},
      {"measurement": "HAM-A score, Amount of change from baseline", "setting": "[1]; Patient A, baseline 18, 4th week", "result": "−14"},
      {"measurement": "HAM-A score, 4th week", "setting": "[1]; Patient B, baseline 23", "result": 1},
      {"measurement": "HAM-A score, Amount of change from baseline", "setting": "[1]; Patient B, baseline 23, 4th week", "result": "−22"},
      {"measurement": "HAM-A score, 4th week", "setting": "[1]; Patient D, baseline 22", "result": 4},
      {"measurement": "HAM-A score, Amount of change from baseline", "setting": "[1]; Patient D, baseline 22, 4th week", "result": "−18"},
      {"measurement": "HAM-A score, 4th week", "setting": "[1]; Patient E, baseline 18", "result": 5},
      {"measurement": "HAM-A score, Amount of change from baseline", "setting": "[1]; Patient E, baseline 18, 4th week", "result": "−13"},
      {"measurement": "HAM-D score, 4th week", "setting": "[2]; Patient D, baseline 18", "result": 2},
      {"measurement": "HAM-D score, Amount of change from baseline", "setting": "[2]; Patient D, baseline 18, 4th week", "result": "−16"},
      {"measurement": "HAM-D score, 4th week", "setting": "[2]; Patient E, baseline 13", "result": 3},
      {"measurement": "HAM-D score, Amount of change from baseline", "setting": "[2]; Patient E, baseline 13, 4th week", "result": "−10"},
      {"measurement": "HAM-D score, 4th week", "setting": "[2]; Patient F, baseline 20", "result": 13},
      {"measurement": "HAM-D score, Amount of change from baseline", "setting": "[2]; Patient F, baseline 20, 4th week", "result": "−7"},
      {"measurement": "HAM-D score, 4th week", "setting": "[2]; Patient G, baseline 13", "result": 4},
      {"measurement": "HAM-D score, Amount of change from baseline", "setting": "[2]; Patient G, baseline 13, 4th week", "result": "−9"},
      {"measurement": "receptor occupancy at 0.1 mg/kg", "setting": "brain TSPO [3]; rat cerebral cortex", "result": 11.8, "unit": "%"},
      {"measurement": "receptor occupancy at 0.3 mg/kg", "setting": "brain TSPO [3]; rat cerebral cortex", "result": 47.7, "unit": "%"},
      {"measurement": "receptor occupancy at 1 mg/kg", "setting": "brain TSPO [3]; rat cerebral cortex", "result": 83.8, "unit": "%"},
      {"measurement": "receptor occupancy at 3 mg/kg", "setting": "brain TSPO [3]; rat cerebral cortex", "result": 94.5, "unit": "%"},
      {"measurement": "receptor occupancy at 0.1 mg/kg", "setting": "brain TSPO [3]; rat hippocampus", "result": 25.7, "unit": "%"},
      {"measurement": "receptor occupancy at 0.3 mg/kg", "setting": "brain TSPO [3]; rat hippocampus", "result": 50.7, "unit": "%"},
      {"measurement": "receptor occupancy at 1 mg/kg", "setting": "brain TSPO [3]; rat hippocampus", "result": 86.3, "unit": "%"},
      {"measurement": "receptor occupancy at 3 mg/kg", "setting": "brain TSPO [3]; rat hippocampus", "result": 95.1, "unit": "%"},
      {"measurement": "brain TSPO occupancy required to exert antistress, antidepressant and antianxiety effect", "setting": "brain TSPO [3]; rats, achieved by 0.3 to 3 mg/kg, from Biological examples 1 to 4", "result": "≥ 50", "unit": "%"},
      {"measurement": "plasma concentration that makes brain TSPO occupancy reach about 50%", "setting": "brain TSPO [4]; Emax model", "result": "about 15 ng/mL"},
      {"measurement": "plasma concentration that makes brain TSPO occupancy reach about 85%", "setting": "brain TSPO [4]; Emax model", "result": "about 150 ng/mL"},
      {"measurement": "θ1 (=Emax), maximal effect of Emax model of TSPO occupancy", "setting": "brain TSPO [4]; [11C] PBR28, 6 to 200 mg single oral dose, NONMEM, in % (unit assumed)", "result": "92.8±3.59"},
      {"measurement": "EC50", "setting": "brain TSPO [4]; [11C] PBR28, 6 to 200 mg single oral dose, NONMEM, read-out: θ2 (=EC50), blood concentration which can be achieved 50% Emax (converted)", "result": 34.3, "unit": "nM"},
      {"measurement": "average stool wet weight", "setting": "[5]; 0.1 mg/kg oral", "result": 1.48, "unit": "g"},
      {"measurement": "average stool wet weight", "setting": "[5]; 0.3 mg/kg oral", "result": 0.96, "unit": "g"},
      {"measurement": "average stool wet weight", "setting": "[5]; 1 mg/kg oral", "result": 0.60, "unit": "g"},
      {"measurement": "average stool wet weight", "setting": "[5]; 3 mg/kg oral", "result": 0.67, "unit": "g"},
      {"measurement": "effect on stool wet weight compared to the vehicle treated group", "setting": "[5]; dose of 0.3, 1 and 3 mg/kg oral", "result": "significantly inhibit the stool wet weight"}
    ]}
  ]
}
